Test results as given in ChEMBL document CHEMBL1201862, “PubChem BioAssay data set” (2004).
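The compound was tested at five concentrations on cells cultured in 96-well plates, with a 48-hour exposure period. Here, GI50 denotes the concentration required for 50% inhibition of growth.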 The source made the active and inactive calls. Rule as the data show it: active = GI50 up to about 1.1 µM and inactive = higher.

What was measured:
Assay in all cases: inhibition of tumour cell growth, NCI panel, 48 h
MOLT-4 = tested on: MOLT-4
CCRF-CEM = tested on: CCRF-CEM
Malme-3M = tested on: Malme-3M
NCI-H460 = tested on: NCI-H460
SNB-19 = tested on: SNB-19
EKVX = tested on: EKVX
NCI-H226 = tested on: NCI-H226
SK-MEL-5 = tested on: SK-MEL-5
A549 = tested on: A549
HCC 2998 = tested on: HCC 2998
SR = tested on: SR
HCT-15 = tested on: HCT-15
HT-29 = tested on: HT-29
RXF 393 = tested on: RXF 393
NCI-H23 = tested on: NCI-H23
SK-MEL-2 = tested on: SK-MEL-2
CAKI-1 = tested on: CAKI-1
A498 = tested on: A498

SMILES | GI50 (MOLT-4) | GI50 (CCRF-CEM) | GI50 (Malme-3M) | GI50 (NCI-H460) | GI50 (SNB-19) | GI50 (EKVX) | GI50 (NCI-H226) | GI50 (SK-MEL-5) | GI50 (A549) | GI50 (HCC 2998) | GI50 (SR) | GI50 (HCT-15) [µM] | GI50 (HT-29) | GI50 (RXF 393) | GI50 (NCI-H23) | GI50 (SK-MEL-2) | GI50 (CAKI-1) | GI50 (A498)
O=C1NCCCC12CCCNC2=O | > 100 µM (inactive) | > 100 µM (inactive) | > 100 µM (inactive) | > 100 µM (inactive) | > 100 µM (inactive) | > 100 µM (inactive) | > 100 µM (inactive) | > 100 µM (inactive) | > 100 µM (inactive) | > 100 µM (inactive) | > 100 µM (inactive) | > 100 | > 100 µM (inactive) | > 100 µM (inactive) | > 100 µM (inactive) |  |  | 
O=c1n(Cc2ccccc2)c2ccccc2n1CC1CS1 (configuration not stated) | > 100 µM (inactive) | > 100 µM (inactive) | > 100 µM (inactive) |  | > 100 µM (inactive) | > 100 µM (inactive) | > 100 µM (inactive) |  | > 100 µM (inactive) | > 100 µM (inactive) | > 100 µM (inactive) | > 100 |  |  |  | > 100 µM (inactive) | > 100 µM (inactive) | 
CC(C)COC(=O)N1N=NC2C3CC(=O)C(O3)C21 (configuration not stated) | > 100 µM (inactive) | > 100 µM (inactive) | > 100 µM (inactive) | > 100 µM (inactive) | > 100 µM (inactive) | > 100 µM (inactive) |  | > 100 µM (inactive) | > 100 µM (inactive) | > 100 µM (inactive) | > 100 µM (inactive) | > 100 | > 100 µM (inactive) | > 100 µM (inactive) | > 100 µM (inactive) | > 100 µM (inactive) | > 100 µM (inactive) | > 100 µM (inactive)
N#Cc1ccc([N+](=O)[O-])cc1NC(N)=S | > 100 µM (inactive) |  | > 100 µM (inactive) |  | > 100 µM (inactive) | > 100 µM (inactive) |  | > 100 µM (inactive) | > 100 µM (inactive) | > 100 µM (inactive) | > 100 µM (inactive) | > 100 | > 100 µM (inactive) |  |  | > 100 µM (inactive) | > 100 µM (inactive) | > 100 µM (inactive)
CC(C)(C1=NC(C(C)(C)C)CO1)C1=N[C@@H](C(C)(C)C)CO1 (some centres not stated) | > 100 µM (inactive) | > 100 µM (inactive) | > 100 µM (inactive) | > 100 µM (inactive) | > 100 µM (inactive) | > 100 µM (inactive) | > 100 µM (inactive) | > 100 µM (inactive) | > 100 µM (inactive) | > 100 µM (inactive) | > 100 µM (inactive) | > 100 | > 100 µM (inactive) | > 100 µM (inactive) | > 100 µM (inactive) | > 100 µM (inactive) |  | 
CC(=O)OCc1nnn2c1C(OC(C)=O)CC2 (configuration not stated) | > 100 µM (inactive) |  | > 100 µM (inactive) | > 100 µM (inactive) | > 100 µM (inactive) | > 100 µM (inactive) | > 100 µM (inactive) | > 100 µM (inactive) | > 100 µM (inactive) | > 100 µM (inactive) | > 100 µM (inactive) | > 100 | > 100 µM (inactive) | > 100 µM (inactive) | > 100 µM (inactive) | > 100 µM (inactive) | > 100 µM (inactive) | 
CC(=O)Nc1ccc(C(=O)N2N=C(C)/C(=C/c3cccc(O)c3)C2=O)cc1 | > 100 µM (inactive) | > 100 µM (inactive) | > 100 µM (inactive) | > 100 µM (inactive) | > 100 µM (inactive) | > 100 µM (inactive) | > 100 µM (inactive) | > 100 µM (inactive) | > 100 µM (inactive) | > 100 µM (inactive) |  | > 100 | > 100 µM (inactive) |  | > 100 µM (inactive) | > 100 µM (inactive) | > 100 µM (inactive) | 
O/N=C/c1ncccc1C1OCCO1 | > 100 µM (inactive) | > 100 µM (inactive) | > 100 µM (inactive) | > 100 µM (inactive) | > 100 µM (inactive) | > 100 µM (inactive) | > 100 µM (inactive) | > 100 µM (inactive) | > 100 µM (inactive) |  | > 100 µM (inactive) | > 100 | > 100 µM (inactive) | > 100 µM (inactive) | > 100 µM (inactive) | > 100 µM (inactive) | > 100 µM (inactive) | 
CN1C=C(C(N)=O)Cc2ccsc21 | > 100 µM (inactive) | > 100 µM (inactive) | > 100 µM (inactive) | > 100 µM (inactive) | > 100 µM (inactive) | > 100 µM (inactive) | > 100 µM (inactive) | > 100 µM (inactive) | > 100 µM (inactive) | > 100 µM (inactive) | > 100 µM (inactive) | > 100 | > 100 µM (inactive) | > 100 µM (inactive) | > 100 µM (inactive) | > 100 µM (inactive) | > 100 µM (inactive) | 
COC(=O)C1=CC2OC1(C)CCC2=O (configuration not stated) | 45.9 µM (inactive) | 35.1 µM (inactive) | 71.4 µM (inactive) | > 100 µM (inactive) | > 100 µM (inactive) | > 100 µM (inactive) | > 100 µM (inactive) |  | > 100 µM (inactive) | > 100 µM (inactive) | 45.9 µM (inactive) | 67.9 | > 100 µM (inactive) | > 100 µM (inactive) | 99.3 µM (inactive) | > 100 µM (inactive) | 63 µM (inactive) | 
N/N=c1\c2ccccc2c2ccc3c4ccccc4/c(=N\N)c3c12 | > 100 µM (inactive) | > 100 µM (inactive) | > 100 µM (inactive) | > 100 µM (inactive) | > 100 µM (inactive) | > 100 µM (inactive) | > 100 µM (inactive) | > 100 µM (inactive) | > 100 µM (inactive) | > 100 µM (inactive) | 25.7 µM (inactive) | > 100 | > 100 µM (inactive) | > 100 µM (inactive) | > 100 µM (inactive) | > 100 µM (inactive) |  | 
CCC1N2CCCCC2[C@@H]2c3[nH]c4ccccc4c3CCN12 (some centres not stated) | > 100 µM (inactive) | > 100 µM (inactive) | > 100 µM (inactive) | > 100 µM (inactive) | > 100 µM (inactive) | > 100 µM (inactive) |  | > 100 µM (inactive) | > 100 µM (inactive) | > 100 µM (inactive) |  | > 100 | > 100 µM (inactive) | > 100 µM (inactive) | > 100 µM (inactive) | > 100 µM (inactive) | > 100 µM (inactive) | > 100 µM (inactive)
COc1cc2c3cc1Oc1c(O)c(OC)cc4c1C(Cc1ccc(O)c(c1)Oc1ccc(cc1)CC3N(C)CC2)N(C)CC4 (configuration not stated) | 8.34 µM (inactive) | 8.57 µM (inactive) | 18.2 µM (inactive) | 15.1 µM (inactive) | 26 µM (inactive) | 21.9 µM (inactive) | 21.4 µM (inactive) | 18.5 µM (inactive) | 17.6 µM (inactive) | 5.61 µM (inactive) |  | 11.6 | 7.13 µM (inactive) | 2.44 µM (inactive) | 23.7 µM (inactive) | 23.6 µM (inactive) | 17.3 µM (inactive) | 18.2 µM (inactive)
c1ccc(C2N=C(c3ccccn3)C(c3ccccn3)=NC2c2ccccc2)cc1 (configuration not stated) | > 100 µM (inactive) | > 100 µM (inactive) | > 100 µM (inactive) | > 100 µM (inactive) | 19.1 µM (inactive) | > 100 µM (inactive) | > 100 µM (inactive) | > 100 µM (inactive) | > 100 µM (inactive) | > 100 µM (inactive) |  | > 100 | > 100 µM (inactive) | > 100 µM (inactive) | > 100 µM (inactive) | > 100 µM (inactive) | > 100 µM (inactive) | > 100 µM (inactive)
CCOc1cccc2[s+]snc12 | 78.2 µM (inactive) | 62.8 µM (inactive) | > 100 µM (inactive) | > 100 µM (inactive) | > 100 µM (inactive) | > 100 µM (inactive) | > 100 µM (inactive) | 23.6 µM (inactive) | > 100 µM (inactive) | > 100 µM (inactive) |  | > 100 | > 100 µM (inactive) | > 100 µM (inactive) | > 10 µM (inactive) | > 100 µM (inactive) | > 100 µM (inactive) | > 100 µM (inactive)
CCOC(=O)Nc1ccc(S(=O)(=O)OC)cc1.CCOC(=O)Nc1ccc(S(=O)(=O)OC)cc1.Cc1cn(C2CC(O)C(CO)O2)c(=O)[nH]c1=O | > 100 µM (inactive) | 87.1 µM (inactive) | > 100 µM (inactive) | > 100 µM (inactive) | > 100 µM (inactive) | > 100 µM (inactive) | > 100 µM (inactive) | > 100 µM (inactive) | > 100 µM (inactive) | > 100 µM (inactive) |  | 18.6 | 54.8 µM (inactive) |  | > 100 µM (inactive) | > 100 µM (inactive) | > 100 µM (inactive) | > 100 µM (inactive)
COc1ccc(C2C(Cl)C(=O)N2NC(=O)c2ccc(NC(C)=O)cc2)cc1OC (configuration not stated) | > 100 µM (inactive) | > 100 µM (inactive) | > 100 µM (inactive) | > 100 µM (inactive) | > 100 µM (inactive) |  | > 100 µM (inactive) | > 100 µM (inactive) | > 100 µM (inactive) | > 100 µM (inactive) | > 100 µM (inactive) |  | > 100 µM (inactive) |  | > 100 µM (inactive) | > 100 µM (inactive) |  | 
CC1(c2ccc(F)cc2)C(C#N)C(=O)NC(=O)C1C#N (configuration not stated) | > 100 µM (inactive) | > 100 µM (inactive) | > 100 µM (inactive) | > 100 µM (inactive) | > 100 µM (inactive) | 58.1 µM (inactive) | > 100 µM (inactive) | > 100 µM (inactive) | > 100 µM (inactive) | > 100 µM (inactive) |  | > 100 | > 100 µM (inactive) | 60.1 µM (inactive) | > 100 µM (inactive) | > 100 µM (inactive) | > 100 µM (inactive) | 41.4 µM (inactive)
